Laboratory results published in patent US20230184744A1, “INTERTUMORAL HOMOGENEITY DETERMINED BY MiCK ASSAY” (Pierian Biosciences, LLC, priority 2014, published 2023).

Columns and labels:
[1] = tested on: NSCLC, multi-focal, recurrent adenocarcinoma (right lung); experiment: MiCK assay, drug-induced apoptosis, Table 3 tumor D1; format: cell-based, human; conditions: Table 3 tumor D1: NSCLC, multi-focal, recurrent adenocarcinoma (right lung); 48 hours with drug
Source text: (§1) Data were obtained optically using Mie light-scattering.
(§2) Do a test well. […] Look at the well under the inverted microscope. […] Repeat until optimal cell concentration is found. Plate the cells into the wells.

[2] = tested on: Pancreatic islet cell cancer (lymph node); experiment: MiCK assay, drug-induced apoptosis, Table 4 tumor A1; conditions: Table 4 tumor A1: Pancreatic islet cell cancer (lymph node); 48 hours with drug
Protocol: (§4) After overnight incubation, chemotherapy drugs were added to the wells of the 96-well plate in 5 μL aliquots or to the wells of a 384-well plate in 2.5 μL aliquots using an automated pipettor. The number of drugs or drug combinations and the number of concentrations tested depended on the number of viable malignant cells that were isolated from the tumor specimen. The drug concentrations, determined by molarity, were those indicated by the manufacturer as the desired blood level concentration plus or minus one serial dilution if enough cells were available.
(§5) Following drug addition, the plate was incubated for 30 min. at 37° C. in a 5% carbon dioxide humidified atmosphere incubator. Each well was then overlayed with sterile mineral oil, and the plate was placed into the incubator chamber of a microplate spectrophotometric reader. The optical density at 600 nanometers was read and recorded every 5 minutes over a period of 48 hours.
(§6) Patients: Three patients were included in this study. Two tumor samples from different tumor sites were collected from each patient. Both samples from each patient were collected on the same day.

[3] = tested on: NSCLC, multi-focal adenocarcinoma (site B); experiment: MiCK assay, drug-induced apoptosis, Table 3 tumor E2; format: cell-based, human; conditions: Table 3 tumor E2: NSCLC, multi-focal adenocarcinoma (site B); 48 hours with drug
Source text: as §1, §2

[4] = tested on: Lung adenocarcinoma (solid tumor); experiment: MiCK assay, drug-induced apoptosis, Table 4 tumor B2; format: cell-based, human; conditions: Table 4 tumor B2: Lung adenocarcinoma (solid tumor); 48 hours with drug
Source text: as §1
(§3) Patients: Three patients were included in this study. […] Patient A was diagnosed with pancreatic islet cell cancer; sample 1 was collected from lymph node and sample 2 was collected from the primary tumor. Patient B was diagnosed with lung cancer NSCLC adenocarcinoma; sample 1 was collected from pleural effusion and sample 2 was collected from solid tumor. […] Ages of the patients ranged from 51-79 years old with an average age of 65 years. One patient was […] and two were female.

[5] = tested on: NSCLC, multi-focal, recurrent adenocarcinoma (site A); experiment: MiCK assay, drug-induced apoptosis, Table 3 tumor C1; format: cell-based, human; conditions: Table 3 tumor C1: NSCLC, multi-focal, recurrent adenocarcinoma (site A); 48 hours with drug
Source text: as §1, §2

[6] = tested on: Probable mesothelioma (pleural effusion); experiment: MiCK assay, drug-induced apoptosis, Table 3 tumor A2; format: cell-based, human; conditions: Table 3 tumor A2: Probable mesothelioma (pleural effusion); 48 hours with drug
Protocol: as §1
When the optimal cell concentration is reached, put the cells in the plate and incubate overnight in the incubating chamber of the incubator (37° C.).

[7] = tested on: NSCLC, bilateral well-differentiated adenocarcinoma (site 1A); experiment: MiCK assay, drug-induced apoptosis, Table 3 tumor B1; format: cell-based, human; conditions: Table 3 tumor B1: NSCLC, bilateral well-differentiated adenocarcinoma (site 1A); 48 hours with drug
Source text: as §1, §2

[8] = tested on: Lung small cell carcinoma (site A); experiment: MiCK assay, drug-induced apoptosis, Table 4 tumor C1; conditions: Table 4 tumor C1: Lung small cell carcinoma (site A); 48 hours with drug
Protocol: as §4, §5, §6

[9] = tested on: Lung adenocarcinoma (site B); experiment: MiCK assay, drug-induced apoptosis, Table 4 tumor C2; conditions: Table 4 tumor C2: Lung adenocarcinoma (site B); 48 hours with drug
Protocol: as §4
(§7) Following drug addition, the plate was incubated for 30 min. at 37° C. in a 5% carbon dioxide humidified atmosphere incubator. Each well was then overlayed with sterile mineral oil, and the plate was placed into the incubator chamber of a microplate spectrophotometric reader. The optical density at 600 nanometers was read and recorded every 5 minutes over a period of 48 hours. Optical density increases, which correlates with apoptosis, were converted to kinetic units (KU) of apoptosis by a proprietary software ProApo with a formula described in the Kravtsov reference incorporated by reference (i.e. Kravtsov V. et al. “Use of the Microculture Kinetic Assay of apoptosis to determine chemosensitivities of leukemias.” Blood 1998; 92:968-980).
(§8) Purified tumor cells were cultured for 48 hours with individual drugs, and drug-induced apoptosis was measured using the MiCK assay as described in Example 1. Data were obtained optically using Mie light-scattering.

[10] = tested on: Lung adenocarcinoma (pleural effusion); experiment: MiCK assay, drug-induced apoptosis, Table 4 tumor B1; format: cell-based, human; conditions: Table 4 tumor B1: Lung adenocarcinoma (pleural effusion); 48 hours with drug
Source text: as §1, §3

[11] = tested on: NSCLC, multi-focal adenocarcinoma (site A); experiment: MiCK assay, drug-induced apoptosis, Table 3 tumor E1; format: cell-based, human; conditions: Table 3 tumor E1: NSCLC, multi-focal adenocarcinoma (site A); 48 hours with drug
Source text: as §1, §2

[12] = tested on: NSCLC, multi-focal, recurrent adenocarcinoma (site B); experiment: MiCK assay, drug-induced apoptosis, Table 3 tumor C2; format: cell-based, human; conditions: Table 3 tumor C2: NSCLC, multi-focal, recurrent adenocarcinoma (site B); 48 hours with drug
Source text: as §1, §2

[13] = tested on: NSCLC, bilateral well-differentiated adenocarcinoma (site 1B); experiment: MiCK assay, drug-induced apoptosis, Table 3 tumor B2; format: cell-based, human; conditions: Table 3 tumor B2: NSCLC, bilateral well-differentiated adenocarcinoma (site 1B); 48 hours with drug
Source text: as §1, §2

[14] = tested on: NSCLC, multi-focal, recurrent adenocarcinoma (lymph node); experiment: MiCK assay, drug-induced apoptosis, Table 3 tumor D2; format: cell-based, human; conditions: Table 3 tumor D2: NSCLC, multi-focal, recurrent adenocarcinoma (lymph node); 48 hours with drug
Source text: as §1, §2

[15] = tested on: Pancreatic islet cell cancer (primary tumor); experiment: MiCK assay, drug-induced apoptosis, Table 4 tumor A2; conditions: 48 hours with drug
Protocol: as §4, §7, §8

| Structure (SMILES) | kinetic units (KU) of apoptosis [1] | kinetic units (KU) of apoptosis [2] | kinetic units (KU) of apoptosis [3] | kinetic units (KU) of apoptosis [4] | kinetic units (KU) of apoptosis [5] | kinetic units (KU) of apoptosis [6] | kinetic units (KU) of apoptosis [7] | kinetic units (KU) of apoptosis [8] | kinetic units (KU) of apoptosis [9] | kinetic units (KU) of apoptosis [10] | kinetic units (KU) of apoptosis [11] | kinetic units (KU) of apoptosis [12] | kinetic units (KU) of apoptosis [13] | kinetic units (KU) of apoptosis [14] | kinetic units (KU) of apoptosis [15] |
| --- | --- | --- | --- | --- | --- | --- | --- | --- | --- | --- | --- | --- | --- | --- | --- |
| N.N.O=C([O-])C1(C(=O)[O-])CCC1.[Pt+2] [Carboplatin] | 1.00 KU | 1.08 KU | 0.30 KU | 2.40 KU | 0.40 KU | 1.50 KU | 1.90 KU | 5.30 KU | 2.60 KU | 1.20 KU | 0.30 KU | 1.20 KU | 2.20 KU | 0.80 KU | 1.48 KU |
| CC(=O)O[C@@]12CO[C@@H]1C[C@H](O)[C@@]1(C)C(=O)[C@H](O)C3=C(C)[C@@H](OC(=O)[C@H](O)[C@@H](NC(=O)OC(C)(C)C)c4ccccc4)C[C@@](O)([C@@H](OC(=O)c4ccccc4)[C@H]21)C3(C)C [Docetaxel] | 0.50 KU | 3.20 KU | 0.20 KU | 2.40 KU | 0.90 KU | 1.10 KU | 2.60 KU | 3.20 KU | 2.10 KU | 4.20 KU | 0.90 KU | 2.30 KU | 2.00 KU | 0.70 KU | 2.65 KU |
| CC(=O)O[C@H]1C(=O)[C@@]2(C)[C@H]([C@H](OC(=O)c3ccccc3)[C@]3(O)C[C@H](OC(=O)[C@H](O)[C@@H](NC(=O)c4ccccc4)c4ccccc4)C(C)=C1C3(C)C)[C@]1(OC(C)=O)CO[C@@H]1C[C@@H]2O [Paclitaxel] | 1.40 KU | 3.43 KU | 0.50 KU | 4.00 KU | 0.00 KU | 1.40 KU | 1.70 KU | 1.70 KU | 3.60 KU | 3.00 KU | 0.00 KU | 1.00 KU | 0.90 KU | 0.90 KU | 2.06 KU |
